Test systems include ACHN renal; SW-620 colon; U251 CNS; M14 melanoma; RPMI-8226 leukemia; OVCAR-5 ovarian; SNB-19 CNS; SK-MEL-28 melanoma; OVCAR-3 ovarian; MCF7 breast; PC-3 prostate; MDA-MB-231 breast.
Common to all, as to experiment: NCI anticancer screen, dose series, 48 h

Values after ≈ are worked out from the molar mass of the structure shown. Values joined by “and” are separate entries in the source; they are usually repeats but may differ in a detail not shown here. Equal values may be shown once.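 48-hour exposure; five concentrations; linearly interpolated endpoints. GI50: concentration for 50% inhibition of growth. At the TGI there is no net growth.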

Consider `CSc1ccc2c(cc1=O)[C@@H](NC(=O)c1ccc(F)cc1)CCc1cc(O)c(O)c(O)c1-2`, for which the TGI with ACHN renal, with SW-620 colon, in the assay on U251 CNS, with M14 melanoma, with RPMI-8226 leukemia and with OVCAR-5 ovarian was above 100 µM in each case. Moreover, the TGI in the assay on SNB-19 CNS, in the assay with SK-MEL-28 melanoma and in the assay with OVCAR-3 ovarian was above 100 µM throughout.

In the case of `O=C(Nc1c(Cl)cc([N+](=O)[O-])cc1Cl)/C(=N\Nc1cccc(Cl)c1)c1c(O)c2ccccc2oc1=O`, the TGI in the assay with ACHN renal, in the assay on SW-620 colon, in the assay with RPMI-8226 leukemia, with OVCAR-5 ovarian, in the assay on SNB-19 CNS and with SK-MEL-28 melanoma was above 100 µM throughout. In the assay on OVCAR-3 ovarian, the TGI was above 100 µM.

On to `COc1ccc([C@@H]2CC(=O)NCCCCNCCCN2)cc1`, for which the TGI with ACHN renal, in the assay on SW-620 colon, in the assay with U251 CNS, in the assay on M14 melanoma, in the assay with RPMI-8226 leukemia and with OVCAR-5 ovarian was above 100 µM throughout. For the same molecule, the TGI with SNB-19 CNS and with SK-MEL-28 melanoma was above 100 µM in each case.

As to `COc1cc([C@@H]2c3cc4c(c(O)c3C[C@H]3COC(=O)[C@@H]32)OCO4)cc(OC)c1O`, the GI50 with SW-620 colon was 0.00397 µM; in the assay with U251 CNS, 0.00228 µM and < 0.02 µM; in the assay with RPMI-8226 leukemia, 0.0041 µM. Also, the TGI was above 200 µM with SW-620 colon; 0.00608 µM and < 0.02 µM in the assay on U251 CNS; 49.1 µM in the assay with RPMI-8226 leukemia; above 200 µM with OVCAR-5 ovarian; above 200 µM with SNB-19 CNS; above 200 µM with SK-MEL-28 melanoma. The molecule further came in with a TGI in the assay on MCF7 breast above 200 µM.

Turning to `CN1OC2OC(=O)OC2[C@H]1[C@H]1O[C@H](c2ccccc2)OC1(C)c1cc(OC(=O)c2ccccc2)ccc1OC(=O)c1ccccc1` (some centres not stated), the TGI with ACHN renal, with SW-620 colon, in the assay on U251 CNS, in the assay with M14 melanoma, in the assay on RPMI-8226 leukemia and in the assay with OVCAR-5 ovarian was above 50 µM in each case. In addition, the TGI in the assay on SNB-19 CNS, with SK-MEL-28 melanoma and with OVCAR-3 ovarian was above 50 µM throughout.

`CC(=O)NC(CCCCNC(=O)N(C)N=O)C(=O)NCc1ccccc1` (configuration not stated): the TGI with ACHN renal, with SW-620 colon, in the assay on U251 CNS, in the assay on M14 melanoma, in the assay on RPMI-8226 leukemia and in the assay on OVCAR-5 ovarian was above 100 µM throughout. In addition, the TGI in the assay on SNB-19 CNS, with SK-MEL-28 melanoma and in the assay on OVCAR-3 ovarian was above 100 µM each time.

In the case of `Cc1cc(NCCCCCCNc2cc(C)nc3ccc(Cl)cc23)c2cc(Cl)ccc2n1`, the TGI with ACHN renal was above 100 µM; with U251 CNS, 30.6 µM; in the assay with M14 melanoma, above 100 µM; with RPMI-8226 leukemia it was above 100 µM; with OVCAR-5 ovarian, 34.7 µM; with SNB-19 CNS, 66.8 µM. Also, the TGI with SK-MEL-28 melanoma and in the assay on OVCAR-3 ovarian was 32 µM each time.

Consider `COc1c(O)cc(C(=O)O[C@@H]2Cc3c(O)cc(O)cc3O[C@@H]2c2cc(O)c(O)c(O)c2)cc1O`, for which the TGI in the assay on ACHN renal is above 100 µM; with SW-620 colon, 59.8 µM; in the assay on M14 melanoma, above 100 µM; with RPMI-8226 leukemia it was 57.7 µM; in the assay on OVCAR-5 ovarian it was above 100 µM; in the assay on SNB-19 CNS, 43 µM. The TGI with PC-3 prostate was above 100 µM; in the assay on SK-MEL-28 melanoma, above 100 µM; in the assay on MCF7 breast, 42 µM; in the assay with OVCAR-3 ovarian it was above 100 µM.

In the case of `Nc1ccc(N)c2c1C(=O)c1c(N)ccc(N)c1C2=O`, the TGI in the assay on ACHN renal, in the assay on SW-620 colon, in the assay with U251 CNS, in the assay on M14 melanoma, with RPMI-8226 leukemia and in the assay on OVCAR-5 ovarian was above 100 µM throughout. Besides, the results for the TGI in the assay with SNB-19 CNS, with SK-MEL-28 melanoma and in the assay with OVCAR-3 ovarian were above 100 µM, above 100 µM and 81.9 µM, respectively.

Regarding `O=C(CSc1nnc(-c2ccc(N=Cc3ccc(Cl)cc3)cc2)o1)Nc1cccc(Cl)c1`, the TGI in the assay on ACHN renal, in the assay with SW-620 colon, with U251 CNS, with M14 melanoma, with RPMI-8226 leukemia and in the assay on SNB-19 CNS was above 100 µM throughout. This molecule had a TGI with SK-MEL-28 melanoma above 100 µM.

Turning to `S=C(Nc1ccccc1)N1N=C2c3ccccc3CC[C@H]2[C@@H]1c1ccccc1`, the TGI in the assay on ACHN renal, in the assay on SW-620 colon, in the assay with U251 CNS, in the assay with M14 melanoma, in the assay on RPMI-8226 leukemia and with OVCAR-5 ovarian was above 100 µM each time. In addition, the TGI in the assay on SNB-19 CNS, in the assay with SK-MEL-28 melanoma and with OVCAR-3 ovarian was above 100 µM in each case.

In the case of `COc1cc(OC)nc(Nc2c(C#N)c3nc4ccccc4n3c3ccccc23)n1`, the TGI in the assay with ACHN renal is 50.1 µM; in the assay on SW-620 colon, above 100 µM; in the assay on U251 CNS, above 100 µM; in the assay with M14 melanoma, above 100 µM; in the assay with RPMI-8226 leukemia, above 100 µM; in the assay with OVCAR-5 ovarian, above 100 µM. Besides, the TGI is 86.2 µM in the assay on SNB-19 CNS; above 100 µM with PC-3 prostate; above 100 µM with SK-MEL-28 melanoma; above 100 µM in the assay on MCF7 breast; above 100 µM with OVCAR-3 ovarian.

As to `NC(N)=Nc1nc2ccccc2[nH]1`, the GI50 was 60.6 µg/mL in the assay with SW-620 colon; 55.3 µg/mL with U251 CNS; 2.98 µg/mL in the assay on RPMI-8226 leukemia; 27.8 µg/mL (≈ 159 µM) in the assay with OVCAR-5 ovarian; 137 µg/mL (≈ 782 µM) in the assay on SNB-19 CNS; 135 µg/mL (≈ 769 µM) in the assay with SK-MEL-28 melanoma. Besides, the GI50 in the assay on MCF7 breast is 1.05 µg/mL (≈ 6.01 µM); with OVCAR-3 ovarian, 38.4 µg/mL (≈ 219 µM). Further, the TGI was above 150 µg/mL in the assay with SW-620 colon; above 150 µg/mL in the assay with U251 CNS; 29.7 µg/mL in the assay on RPMI-8226 leukemia; above 150 µg/mL in the assay with OVCAR-5 ovarian; above 150 µg/mL in the assay with SNB-19 CNS; above 150 µg/mL with SK-MEL-28 melanoma. Also, the values for the TGI in the assay on MCF7 breast and in the assay with OVCAR-3 ovarian were 79.4 µg/mL and above 150 µg/mL, respectively.

For the molecule `N#CC(c1cc(Cl)ncn1)c1nc2ccccc2s1` (configuration not stated), the TGI in the assay with ACHN renal was 68.7 µM; in the assay with SW-620 colon, 22 µM; with U251 CNS, 18.2 µM; in the assay with M14 melanoma it was 33.6 µM; in the assay with RPMI-8226 leukemia, above 100 µM; in the assay on OVCAR-5 ovarian, 59.3 µM. The TGI with SNB-19 CNS turned out to be 20.3 µM; in the assay on SK-MEL-28 melanoma, 42.9 µM; in the assay on MDA-MB-231 breast, 60.4 µM; with OVCAR-3 ovarian, 22.8 µM.

For the molecule `CCNCCNC(=O)c1ccc(Br)cc1`, the TGI in the assay with ACHN renal, in the assay with SW-620 colon, with U251 CNS, in the assay with M14 melanoma, in the assay with RPMI-8226 leukemia and in the assay on OVCAR-5 ovarian was above 100 µM in each case. The TGI in the assay on SNB-19 CNS, in the assay on PC-3 prostate, in the assay with SK-MEL-28 melanoma, in the assay with MCF7 breast and with OVCAR-3 ovarian was above 100 µM in each case.

Turning to `CCOC(=O)/C=C/c1ccccn1`, the TGI in the assay on ACHN renal, in the assay on SW-620 colon, in the assay with U251 CNS, in the assay on M14 melanoma, with RPMI-8226 leukemia and in the assay on OVCAR-5 ovarian was above 100 µM throughout. In the assay on SK-MEL-28 melanoma, this molecule registered a TGI above 100 µM.

In the case of `N#Cc1c2nc3ccccc3nc2n2ccc3ccccc3c12`, the TGI in the assay with ACHN renal, in the assay on U251 CNS, in the assay with M14 melanoma, in the assay on RPMI-8226 leukemia, with OVCAR-5 ovarian and with SNB-19 CNS was above 100 µM each time. Besides, the TGI with SK-MEL-28 melanoma and with OVCAR-3 ovarian was above 100 µM each time.

Regarding `C/C(=N/N)c1ccc2[nH]c3c(C)cc([N+](=O)[O-])c(C)c3c2c1`, the TGI was 21.6 µM in the assay with ACHN renal; 24.7 µM in the assay with SW-620 colon; 30.4 µM with M14 melanoma; 64 µM with RPMI-8226 leukemia; 31.8 µM in the assay with SNB-19 CNS; 24.5 µM in the assay on SK-MEL-28 melanoma. Also, the TGI with OVCAR-3 ovarian came out at 30.7 µM.

In the case of `COc1cc(C=O)c(-c2cc3c(cc2C=O)OCO3)c(OC)c1OC`, the TGI with ACHN renal, in the assay with SW-620 colon, with U251 CNS, in the assay with RPMI-8226 leukemia, in the assay with OVCAR-5 ovarian and with SNB-19 CNS was above 290 µM each time. In addition, the TGI with SK-MEL-28 melanoma is above 290 µM; in the assay with OVCAR-3 ovarian it was 153 µM.

As for `Cc1cc(-c2ccccc2)cc2[n+]1CC=C2`, the TGI in the assay on ACHN renal, in the assay on SW-620 colon, with U251 CNS, with M14 melanoma, in the assay with OVCAR-5 ovarian and in the assay on SNB-19 CNS was above 100 µM each time. In the assay with SK-MEL-28 melanoma, this molecule came in with a TGI above 100 µM.

With `O=C(c1ccccc1)c1c(CNCc2ccccc2)n(C(=O)c2ccccc2)c2ccccc12`, the TGI in the assay with ACHN renal is above 100 µM; in the assay with SW-620 colon, above 100 µM; with U251 CNS, above 100 µM; in the assay with M14 melanoma, above 100 µM; with RPMI-8226 leukemia, 55.1 µM; in the assay on OVCAR-5 ovarian, above 100 µM. The values for the TGI with SNB-19 CNS, in the assay with SK-MEL-28 melanoma and with OVCAR-3 ovarian were above 100 µM, above 100 µM and 65.7 µM, respectively.

Take `CC1=NN(C(=O)Cc2ccccc2)C(=O)/C1=C\c1ccco1`: the TGI with ACHN renal, in the assay on SW-620 colon, in the assay on M14 melanoma, with RPMI-8226 leukemia, in the assay with OVCAR-5 ovarian and in the assay on SNB-19 CNS was above 100 µM throughout. For the same molecule, the TGI in the assay with SK-MEL-28 melanoma and in the assay on OVCAR-3 ovarian was above 100 µM throughout.

These data come from PubChem BioAssay (NCI).
